In one assay the test system is DLD-1. The assay can be described thus: MTS Cellular Assay, DLD-1. The assay is classed as cell-based. As to conditions: Homo sapiens, DLD-1, 72 hours. The protocol: (§1) Cells were maintained at 37° C., 5% CO2 in DMEM media supplemented with 1% fetal bovine serum, penicillin/streptomycin and fungizone (Invitrogen). Cells were seeded into 96-well tissue culture plates at 3000 per well and cultured at 37° C. for 18 hours. Test compounds were dissolved and diluted to 300× in DMSO then further diluted 1:40 in DMEM before addition to cells (1:7.5 dilution). Cells were incubated with test compounds for 72 hours followed by incubation with tetrazolium compound (3-(4,5-dimethylthiazol-2-yl)-5-(3-carboxymethoxyphenyl)-2-(4-sulfophenyl)-2H-tetrazolium, inner salt; MTS) and the electron coupling reagent, phenazine methosulfate (PMS) for 4 hours. […] The ability of compounds to inhibit cell growth in this assay is correlated with the reduction of dehydrogenase enzyme activity found in metabolically active cells. The measurement of the absorbance of the formazan was assessed using an ENVISION™ (Perkin Elmer) microplate reader at 492 nm. The calculated IC50 value is the concentration of the test compound that causes a 50% decrease in the absorbance.

In the next assay the test system is PC-3. The assay can be described thus: MTS Cellular Assay, PC-3. Format: cell-based. As to conditions: Homo sapiens, PC-3, 72 hours. The protocol: as §1
The next assay concerns MDA-MB-231. The assay can be described thus: MTS Cellular Assay, MDA-MB-231. As to conditions: Homo sapiens, MDA-MB-231, 72 hours. Format: cell-based. As to the method:
as §1

The subject of another assay is PACA-2. The assay can be described thus: MTS Cellular Assay, PACA-2. The assay is classed as cell-based. As to conditions: PACA-2, 72 hours. As to the method: as §1
The next assay has as its system KATO III. The assay can be described thus: MTS Cellular Assay, KATO III. The assay is classed as cell-based. As to conditions: Homo sapiens, 72 hours. As to the method: as §1
A further assay deals with NCI-H1299. As to the kind of experiment: MTS Cellular Assay, NCI-H1299. Format: cell-based. As to conditions: Homo sapiens, NCI-H1299, 72 hours. The protocol: as §1
The target of the next assay is T1, Tec kinase (Homo sapiens, UniProt P42680).
T1 sequence (P42680 1-631): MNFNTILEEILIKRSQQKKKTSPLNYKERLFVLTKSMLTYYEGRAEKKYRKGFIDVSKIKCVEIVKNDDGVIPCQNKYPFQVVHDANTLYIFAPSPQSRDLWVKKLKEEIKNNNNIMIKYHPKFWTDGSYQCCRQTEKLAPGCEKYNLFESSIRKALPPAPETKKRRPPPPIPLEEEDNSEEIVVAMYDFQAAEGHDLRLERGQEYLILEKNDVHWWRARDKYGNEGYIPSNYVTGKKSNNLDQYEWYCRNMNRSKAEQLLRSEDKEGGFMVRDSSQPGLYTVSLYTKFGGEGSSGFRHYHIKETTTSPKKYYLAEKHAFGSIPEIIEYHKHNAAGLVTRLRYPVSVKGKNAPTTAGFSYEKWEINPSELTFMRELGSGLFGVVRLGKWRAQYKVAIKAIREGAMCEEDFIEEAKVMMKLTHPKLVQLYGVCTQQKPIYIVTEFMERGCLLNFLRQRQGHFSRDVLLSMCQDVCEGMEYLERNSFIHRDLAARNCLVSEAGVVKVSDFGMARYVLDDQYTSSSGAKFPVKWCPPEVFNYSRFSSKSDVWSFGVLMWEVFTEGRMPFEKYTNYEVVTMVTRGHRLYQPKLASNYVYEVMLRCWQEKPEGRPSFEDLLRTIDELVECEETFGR
As to the kind of experiment: Tec Kinase Activity Assay. Format: biochemical. As to conditions: read-out: Tec % INH, at 30 uM. The protocol: The disclosed compounds were assayed for their ability to inhibit the activity of Tec kinase. Nunc Maxisorb plates were coated with streptavidin by overnight incubation with 100 μL per well of 1 μg/mL Streptavidin in DPBS. Prior to the start of the experiment, the plates were washed with TBST (3×200 μL) and blocked for at least 1 hour by adding 150 μL of 5% BSA/TBST. The plates were washed with TBST (3×200 μL/well) and left dry immediately before the capture step.
The test articles and controls (Staurosporine and Sutent) were prepared using the following assay buffer @ 3× desired final concentration (50 mM Tris-HCl, 0.02 mg/mL BSA, 10 mM MgCl2, 0.1 mM Na3VO4, 1 mM EGTA, 75 μM ATP0.01% NP-40, 2 mM DTT in 10% glycerol/water). In a reaction plate were added rapidly 20 μL test article (or control) and 20 μL TEC 0.25 ng/4. The plate was incubated for 30 minutes. To the reaction plate was added 20 μL of Pyk-2.5 ng/μL. The plate was incubated at room temperature for two hours. From the reaction plate, 50 μL was transferred to the streptavidin coated plate. The capture plate was incubated at room temperature for 30 minutes then washed 6× with TBST. To the capture plate was added 100 μL/well of Cell Signaling anti-phospho tyrosine at a dilution of 1:3000 in 2% BSA/TBST. The plate was incubated for one hour at room temperature then washed 6× with TBST. To the capture plate was added 100 μL/well of Alkaline Phosphatase Tagged Goat anti Mouse Antibody at a dilution of 1:4000 in 2% BSA/TBST. The plate was incubated for one hour at room temperature then washed 6× with TBST. The fluorescent readout was initiated by the addition of 100 μL/well of Attophos reagent (6 mg/10 mL). The reading was done on the Perkin Elmer Envision system.

Data on 14 compounds can be found in patent US8343961B2, “Substituted heterocyclic compounds” (ArQule, Inc., priority 2009, dated 2013).

As to `Nc1nc(N2CCN(CCCc3cccc(Cl)c3)c3ccccc3C2)c2cn[nH]c2n1` [Compound 8, 4-{1-[3-(3-chlorophenyl)propyl]-1,2,3,5-tetrahydro-4H-1,4-benzodiazepin-4-yl}-1H-pyrazolo[3,4-d]pyrimidin-6-amine], the inhibition at 10 µM was over 79% in the assay on DLD-1; under 50% with PC-3; under 50% in the assay with MDA-MB-231; under 50% in the assay on PACA-2; under 50% with KATO III; 50 to 79% in the assay on NCI-H1299. Also, the inhibition at 30 µM on Tec kinase was over 79%.
Turning to `Nc1nc(N2CCN(Cc3ccccc3Cl)c3ccccc3C2)c2cn[nH]c2n1` [Compound 14, 4-[1-(2-chlorobenzyl)-1,2,3,5-tetrahydro-4H-1,4-benzodiazepin-4-yl]-1H-pyrazolo[3,4-d]pyrimidin-6-amine], the inhibition at 10 µM in the assay on DLD-1 was over 79%; in the assay on PC-3 it was over 79%; with MDA-MB-231, over 79%; in the assay with PACA-2, under 50%; in the assay with KATO III, over 79%; in the assay on NCI-H1299 it was 50 to 79%. Also, the inhibition at 30 µM on Tec kinase was in the range of 50 to 79%.
For `Nc1nc(N2CCN(Cc3cccc(C(F)(F)F)c3)c3ccccc3C2)c2cn[nH]c2n1` [Compound 21, 4-{1-[3-(trifluoromethyl)benzyl]-1,2,3,5-tetrahydro-4H-1,4-benzodiazepin-4-yl}-1H-pyrazolo[3,4-d]pyrimidin-6-amine], the inhibition at 10 µM in the assay with DLD-1 is over 79%; in the assay with PC-3 it was over 79%; in the assay on MDA-MB-231 it was over 79%; with PACA-2, under 50%; in the assay with KATO III, over 79%; in the assay with NCI-H1299, under 50%. Moreover, on Tec kinase, the inhibition at 30 µM was in the range of 50 to 79%.
In the case of `Nc1nc(N2CCN(Cc3ccc(Cl)cc3)c3ccccc3C2)c2cn[nH]c2n1` [Compound 23, 4-[1-(4-chlorobenzyl)-1,2,3,5-tetrahydro-4H-1,4-benzodiazepin-4-yl]-1H-pyrazolo[3,4-d]pyrimidin-6-amine], the inhibition at 10 µM in the assay with DLD-1 was over 79%; with PC-3, under 50%; in the assay on MDA-MB-231, 50 to 79%; in the assay on PACA-2, under 50%; with KATO III, under 50%; with NCI-H1299, over 79%. Moreover, the inhibition at 30 µM at Tec kinase was under 50%.
Take `COc1ccc(CN2CCN(c3nc(N)nc4[nH]ncc34)Cc3ccccc32)cc1OC` [Compound 28, 4-[1-(3,4-dimethoxybenzyl)-1,2,3,5-tetrahydro-4H-1,4-benzodiazepin-4-yl]-1H-pyrazolo[3,4-d]pyrimidin-6-amine]: the inhibition at 10 µM in the assay with DLD-1, in the assay on PC-3, in the assay with MDA-MB-231, with PACA-2, in the assay on KATO III and in the assay with NCI-H1299 was over 79% throughout. In addition, on Tec kinase, the inhibition at 30 µM was 50 to 79%.
As for `CC(C)(C)c1ccc(CN2CCN(c3nc(N)nc4[nH]cnc34)Cc3ccccc32)cc1` [Compound 29, 6-[1-(4-tert-butylbenzyl)-1,2,3,5-tetrahydro-4H-1,4-benzodiazepin-4-yl]-9H-purin-2-amine], the inhibition at 10 µM with DLD-1, in the assay with PC-3, in the assay with MDA-MB-231, in the assay on PACA-2, with KATO III and in the assay on NCI-H1299 was under 50% in each case. Further, the inhibition at 30 µM on Tec kinase is under 50%.
Consider `CC(C)(C)c1ccc(CN2CCN(c3nc(N)nc4[nH]ncc34)Cc3ccccc32)cc1` [Compound 30, 4-[1-(4-tert-butylbenzyl)-1,2,3,5-tetrahydro-4H-1,4-benzodiazepin-4-yl]-1H-pyrazolo[3,4-d]pyrimidin-6-amine], for which the inhibition at 10 µM in the assay with DLD-1 was over 79%; in the assay with PC-3, under 50%; with MDA-MB-231, under 50%; in the assay with PACA-2, under 50%; in the assay with KATO III it was under 50%; in the assay with NCI-H1299, 50 to 79%. Besides, the inhibition at 30 µM on Tec kinase fell in the range of 50 to 79%.
Regarding `Nc1nc(N2CCN(Cc3ccc(Cl)cc3Cl)c3ccccc3C2)c2cn[nH]c2n1` [Compound 32, 4-[1-(2,4-dichlorobenzyl)-1,2,3,5-tetrahydro-4H-1,4-benzodiazepin-4-yl]-1H-pyrazolo[3,4-d]pyrimidin-6-amine], the inhibition at 10 µM was over 79% with DLD-1; under 50% in the assay on PC-3; under 50% in the assay with MDA-MB-231; under 50% in the assay on PACA-2; 50 to 79% with KATO III; over 79% in the assay with NCI-H1299. Besides, the inhibition at 30 µM on Tec kinase fell in the range of 50 to 79%.
For the compound `Cc1ccc(CCCN2CCN(c3nc(N)nc4[nH]cnc34)Cc3ccccc32)cc1` [Compound 44, 6-{1-[3-(4-methylphenyl)propyl]-1,2,3,5-tetrahydro-4H-1,4-benzodiazepin-4-yl}-9H-purin-2-amine], at Tec kinase, the inhibition at 30 µM is under 50%.
On the same count and under the same terms, as for `Cc1ccc(CCCN2CCN(c3nc(N)nc4[nH]ncc34)Cc3ccccc32)cc1` [Compound 45, 4-{1-[3-(4-methylphenyl)propyl]-1,2,3,5-tetrahydro-4H-1,4-benzodiazepin-4-yl}-1H-pyrazolo[3,4-d]pyrimidin-6-amine], the figure is over 79%; as for `Nc1nc(N2CCN(Cc3ccc(F)c(F)c3)c3ccccc3C2)c2nc[nH]c2n1` [Compound 46, 6-[1-(3,4-difluorobenzyl)-1,2,3,5-tetrahydro-4H-1,4-benzodiazepin-4-yl]-9H-purin-2-amine], under 50%.
The same measure, in the same setting: the result for `Nc1nc(N2CCN(Cc3ccc(F)c(F)c3)c3ccccc3C2)c2cn[nH]c2n1` [Compound 47, 4-[1-(3,4-difluorobenzyl)-1,2,3,5-tetrahydro-4H-1,4-benzodiazepin-4-yl]-1H-pyrazolo[3,4-d]pyrimidin-6-amine] reads 50 to 79%; that for `COc1cc2c(cc1OC)C(c1cccc(Cl)c1F)N(c1nc(N)nc3[nH]cnc13)CC2` (centres unmarked) [Compound 49, 6-[1-(3-chloro-2-fluorophenyl)-6,7-dimethoxy-3,4-dihydroisoquinolin-2(1H)-yl]-9H-purin-2-amine], under 50%.
The same measure, in the same setting: the result for `COc1cc2c(cc1OC)C(CCc1ccccc1)N(c1nc(N)nc3[nH]ncc13)CC2` (centres unmarked) [Compound 51, 4-[6,7-dimethoxy-1-(2-phenylethyl)-3,4-dihydroisoquinolin-2(1H)-yl]-1H-pyrazolo[3,4-d]pyrimidin-6-amine] reads under 50%.
